Molecules are shown by their SMILES. Where two headings read alike, the source gives them in different places.

One data set has as its target recombinant PfCLK3 (Plasmodium falciparum, UniProt Q8IIL5). Description: TR-FRET kinase assay at Km ATP. To be noted: 2 hour incubation, errors SD, N ≥ 3, * concentration response curve not complete. It is filed as biochemical. How it is done:
All compounds were then evaluated against recombinant PfCLK3 using a TR-FRET kinase assay (Fig. 5). […]
Time Resolved Förster Resonance Energy Transfer (TR-FRET) Assay
Tr-FRET technology was used to determine kinase activity and Km ATP before profiling compounds. An 11-point half-log serial dilution of each test compound was prepared in 100% DMSO at 100X final test concentration. The dilution series were dispensed onto assay plates with liquid handling machinery using positive displacement. The final DMSO concentration in the assay was 1%. To obtain IC 50 values, full length recombinant PfCLK3 was prepared in 1X assay buffer (50 mM Hepes, 10 mM MgCl2, 1 mM EGTA, 0.01% Tween20, 2 mM TCEP) at a 2X concentration and incubated with compounds for 15 minutes at room temperature before addition of ULight-labelled peptide substrate (MBP) with Km ATP (at 2X concentration). The reaction was centrifuged and incubated for 2 hr at 37 °C. To stop the reaction, 1X Lance detection buffer was added with 1 nM Eu-labelled anti-MBP and 10 mM EDTA, and the reaction was incubated in the dark for 2 hr at room temperature to allow detection to take place. Plate output was read on a Pherastar FSX and data analysed in Graphpad Prism to a 4-parameter curve fit. […]
On the technique in general: TR-FRET usually uses a lanthanide donor and a delayed reading to cut background.

A further data set deals with human (h)CLK2 (Homo sapiens, UniProt P49760). In words: Selectivity kinase assay against hCLK2. It is filed as biochemical. Particulars: for IC50: errors SD, N ≥ 3. The text has this:
Given this work aims to target a conserved residue, selectivity must be derived from the reversible ligand rather than the covalent interaction.

For a further data set, the system named is PfCLK3. Description: Tryptic digest and tandem mass spectrometry of PfCLK3 adducts. It is filed as binding, Plasmodium falciparum. Particulars: PfCLK3 pretreated with compound, trypsin digest, tandem MS. The text has this:
PfCLK3 pretreated with either compound 4 or 9 was then digested with trypsin, and the resulting tryptic peptides analysed by tandem mass spectrometry (Fig. 4d and e). This subset of compounds sampled azaindole regioisomers as well as both aldehyde warheads used. […] However, possible modification of a peptide containing Lys494 and Lys503 was also observed. This is a curious result, as a secondary adduct was not observed in the intact spectrum. Lys503 is distal from the ATP binding site, whereas Lys494 lies at its entrance. Adduct formation may be occurring with Lys494 as 4 approaches the binding-site.
This is consistent with the intact mass spectrum, which detected a doubly modified species in ∼20% abundance versus the singly modified protein. […]
For intact protein mass spectrometry, compounds were incubated with a 5-fold excess of compound in buffer containing 20 mM HEPES pH 7.4, 150 mM NaCl, 1 mM TCEP, and 1 mM MgCl 2. […] Samples were incubated at room temperature for 4 hours before 10 μL alliquots were analysed by LC-MS. […]
The resulting peptide mixture was analyzed by high resolution nESI FT-ICR MS using a 12 Telsa Solarix 2XR mass spectrometer (Bruker Daltonics) equipped with a nanomate infusion robot (Advion Biosciences). […]

The nature of data set [1]: Human cell viability assay (resazurin). Particulars: HepG2, 48 hours, errors SD, N ≥ 3. Here is the method: Cytotoxicity was assessed in HepG2 cells to complement the selectivity evaluations (Fig. 7). […]
Human cell viability assay.
Mycoplasma tested HepG2 cells were cultured in Dulbecco’s Modified Eagle Medium
(DMEM) with 10% fetal bovine serum, 1% non-essential AA, 1% sodium pyruvate, 1% Pen-
strep and 100ug/mL Normocin. Cultures were incubated at 37 ℃, 5% CO2. Cells were
detached using 0.05% trypsin-EDTA. 500nL of drug compound dilutions, in triplicate, were
added to 384-well, black, clear bottom assay plates using a Mosquito liquid handling
machine. Assay plates, containing compound dilutions, were seeded at 5,000 cells/well and
incubated for 48 hours. 40uM final concentration resazurin, diluted in DPBS, was added to
the assay plates which were then incubated for 4 hours and analysed using a ClariostarTM
plate reader to measure fluorescence Intensity (545-20nm/600-40nm). 3 control compounds
were included on every assay plate, Tamoxifen, Puromycin and TCMDC-135051. Maximum
signal control was obtained from wells with DMSO only and minimum signal control with
Tamoxifen 100uM. These were used to normalise data and give percentage inhibition of
metabolic activity. Experiments were performed N=3 and normalised data was grouped and a
nonlinear regression curve with four parameters was plotted using GraphPad Prism,
generating activity data. […]
(In general: The colour change of resazurin is a common sign of viable cells or microbes.)

Sequence of recombinant PfCLK3 (Q8IIL5 entry or part of it): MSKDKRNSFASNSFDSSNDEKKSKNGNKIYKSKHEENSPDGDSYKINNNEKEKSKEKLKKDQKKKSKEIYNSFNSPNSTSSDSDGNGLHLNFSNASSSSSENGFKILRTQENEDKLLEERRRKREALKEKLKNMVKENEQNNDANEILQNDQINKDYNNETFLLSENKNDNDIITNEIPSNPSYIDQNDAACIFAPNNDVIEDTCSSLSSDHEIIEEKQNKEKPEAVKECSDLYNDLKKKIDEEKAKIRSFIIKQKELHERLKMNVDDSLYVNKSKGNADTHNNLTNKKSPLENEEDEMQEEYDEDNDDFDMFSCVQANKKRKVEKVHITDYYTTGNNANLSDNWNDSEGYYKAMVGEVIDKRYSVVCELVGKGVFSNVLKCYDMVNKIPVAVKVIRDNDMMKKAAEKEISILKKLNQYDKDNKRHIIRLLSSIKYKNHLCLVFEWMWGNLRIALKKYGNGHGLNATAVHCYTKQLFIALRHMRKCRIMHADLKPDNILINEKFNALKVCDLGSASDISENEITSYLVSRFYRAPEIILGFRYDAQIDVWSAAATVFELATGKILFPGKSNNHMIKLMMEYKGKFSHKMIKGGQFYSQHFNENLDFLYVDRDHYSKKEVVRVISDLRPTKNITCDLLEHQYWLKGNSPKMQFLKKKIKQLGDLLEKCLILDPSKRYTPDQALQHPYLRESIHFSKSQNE
Sequence of human (h)CLK2 (P49760 whole entry): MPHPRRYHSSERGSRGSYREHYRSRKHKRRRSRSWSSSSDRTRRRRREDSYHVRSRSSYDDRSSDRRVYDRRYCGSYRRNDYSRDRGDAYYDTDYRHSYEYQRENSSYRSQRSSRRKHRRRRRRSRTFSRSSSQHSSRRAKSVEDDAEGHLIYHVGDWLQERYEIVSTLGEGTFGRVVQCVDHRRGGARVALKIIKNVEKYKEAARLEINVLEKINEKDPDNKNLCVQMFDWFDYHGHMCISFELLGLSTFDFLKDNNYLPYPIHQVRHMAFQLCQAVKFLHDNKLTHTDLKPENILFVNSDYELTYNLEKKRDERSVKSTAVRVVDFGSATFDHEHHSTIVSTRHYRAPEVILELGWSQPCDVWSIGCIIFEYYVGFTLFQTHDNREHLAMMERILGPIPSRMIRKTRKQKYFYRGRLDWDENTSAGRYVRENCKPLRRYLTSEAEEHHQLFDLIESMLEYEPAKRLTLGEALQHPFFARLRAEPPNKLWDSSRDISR

As for `C#Cc1ccc(-c2c[nH]c3ncc(-c4cc(CN(CC)CC)ccc4OC)cc23)cc1C=O` [Compound 9], the IC50 was 16 ± 4 nM on recombinant PfCLK3 (IC50 (apparent), Km ATP (5 μM)); 16.6 nM at recombinant PfCLK3 (pIC50, Km ATP (5 μM)); 16.6 nM on human (h)CLK2 (read-out: pIC50 (hCLK2) (converted)). Also, on human (h)CLK2 (relative to S1), the “fold more potent against hCLK2 than parent S1” value was determined as 31 fold. In the data set with PfCLK3, the site of modification result was “pyridinium modification was observed in peptides containing both the target Lys394, and Lys373”. Further, the CC50 at 48 h in data set [1] (CC50 (HepG2)) is 7940 ± 1290 nM; in data set [1] (pCC50 (HepG2)), 7940 nM.

As to `CCN(CC)Cc1ccc(OC)c(-c2cc3c(-c4ccc(O)c(C=O)c4)ccnc3[nH]2)c1` [Compound 4], the IC50 on recombinant PfCLK3 (IC50 (apparent), Km ATP (5 μM)) is 16 ± 9 nM; at recombinant PfCLK3 (pIC50, Km ATP (5 μM)), 16.2 nM; on human (h)CLK2 (read-out: IC50 (hCLK2)), 104 ± 37 nM. Further, the site of modification result with PfCLK3 was “Lys394 was the predominant site of modification”. The CC50 at 48 h in data set [1] (CC50 (HepG2)) was 5250 ± 2470 nM; in data set [1] (pCC50 (HepG2)), 5250 nM.

As a reminder, the CC50 is the concentration at which the toxic effect on the cells reaches its halfway point. A lower CC50 goes with harm at low concentration.
